According to patent publication USRE48335E1, “Polymyxin derivatives as antimicrobial compounds” (priority 2014, dated 2020):
In brackets after ≈: the same amount, converted by molar mass. Positions of bridges follow the written chain, without caps; N, C: chain ends. Non-standard residues stand in square brackets, D forms with d. Residues, ends and D or L forms follow the SMILES beside them. *: point of attachment. Lauroyl = CCCCCCCCCCCC(=O)*; Decanoyl = CCCCCCCCCC(=O)*; Nonanoyl = CCCCCCCCC(=O)*; Octanoyl = CCCCCCCC(=O)*; Orn = NCCC[C@H](N)C(=O)O; Dab = NCC[C@H](N)C(=O)O; Dap = NC[C@H](N)C(=O)O

Columns and labels:
Enterobacter cloacae = test system: Enterobacter cloacae
Description: (§1) MICs of the lipopeptides (trifluoroacetic acid salt, TFA) were determined by broth microdilution in cation-adjusted Mueller-Hinton broth (CAMHB) (Oxoid Australia, Thebarton, SA, Australia) according to Clinical and Laboratory Standards Institute standards (Clinical and Laboratory Standards Institute. Performance standards for antimicrobial susceptibility testing; eighteenth informational supplement M100-S18. Wayne, Pa., 2008). Polymyxin B (sulphate) was employed as control. […]

Acinetobacter baumannii = test system: Acinetobacter baumannii
Description: as §1

Pseudomonas aeruginosa = test system: Pseudomonas aeruginosa
Description: as §1

SMILES	Minimum inhibitory concentration, Ec FADDI-EC001 (Enterobacter cloacae) [µg/mL]	Minimum inhibitory concentration, Ec FADDI-EC003 (Enterobacter cloacae) [µg/mL]	Minimum inhibitory concentration, Ec FADDI-EC006 (Enterobacter cloacae) [µg/mL]	Minimum inhibitory concentration, Ab A ATCC 17978 (Acinetobacter baumannii) [µg/mL]	Minimum inhibitory concentration, Ab ATCC 19606 (Acinetobacter baumannii) [µg/mL]	Minimum inhibitory concentration, Ab FADDI-AB034 (Acinetobacter baumannii) [µg/mL]	Minimum inhibitory concentration, Pa ATCC 27853 (Pseudomonas aeruginosa) [µg/mL]	Minimum inhibitory concentration, Pa FADDI-PA022 (Pseudomonas aeruginosa) [µg/mL]	Minimum inhibitory concentration, Pa FADDI-PA025 (Pseudomonas aeruginosa) [µg/mL]
CCCCCCCCC(=O)N[C@@H](CCN)C(=O)N[C@H](C(=O)N[C@H](CO)C(=O)N[C@H]1CCNC(=O)[C@H]([C@@H](C)O)NC(=O)[C@H](CCN)NC(=O)[C@H](CCN)NC(=O)[C@H]([C@@H](C)O)NC(=O)[C@@H](CC(C)C)NC(=O)[C@H](CCN)NC1=O)[C@@H](C)O [Compound 17] (Nonanoyl-[Dab]T[dS][Dab][Dab][dL]T[Dab][Dab]T; lactam 4-C)	0.25 (≈ 0.218 µM)	0.25 (≈ 0.218 µM)	0.5 (≈ 0.437 µM)	<0.125	<0.125	0.25 (≈ 0.218 µM)	2 (≈ 1.75 µM)	4 (≈ 3.5 µM)	16 (≈ 14 µM)
CCCCCCCCCCCC(=O)N[C@@H](CCN)C(=O)N[C@H](C(=O)N[C@@H](CCN)C(=O)N[C@H]1CCNC(=O)[C@H]([C@@H](C)O)NC(=O)[C@H](CCN)NC(=O)[C@H](CCN)NC(=O)[C@H]([C@@H](C)O)NC(=O)[C@@H](CC(C)C)NC(=O)[C@H](CCN)NC1=O)[C@@H](C)O [Compound 28] (Lauroyl-[Dab]T[Dab][Dab][Dab][dL]T[Dab][Dab]T; lactam 4-C)	0.5 (≈ 0.417 µM)	0.5 (≈ 0.417 µM)	0.5 (≈ 0.417 µM)	2 (≈ 1.67 µM)	2 (≈ 1.67 µM)	1 (≈ 0.834 µM)	2 (≈ 1.67 µM)	4 (≈ 3.33 µM)	4 (≈ 3.33 µM)
CCCCCCCC(=O)N[C@@H](CN)C(=O)N[C@H](C(=O)N[C@@H](CCN)C(=O)N[C@H]1CCNC(=O)[C@H]([C@@H](C)O)NC(=O)[C@H](CCN)NC(=O)[C@H](CCN)NC(=O)[C@H]([C@@H](C)O)NC(=O)[C@@H](CC(C)C)NC(=O)[C@H](CCN)NC1=O)[C@@H](C)O [Compound 31] (Octanoyl-[Dap]T[Dab][Dab][Dab][dL]T[Dab][Dab]T; lactam 4-C)	<0.125	0.25 (≈ 0.221 µM)	0.5 (≈ 0.443 µM)	4 (≈ 3.54 µM)	4 (≈ 3.54 µM)	2 (≈ 1.77 µM)	0.5 (≈ 0.443 µM)	0.5 (≈ 0.443 µM)	16 (≈ 14.2 µM)
CCCCCCCC(=O)N[C@@H](CCCN)C(=O)N[C@H](C(=O)N[C@@H](CCN)C(=O)N[C@H]1CCNC(=O)[C@H]([C@@H](C)O)NC(=O)[C@H](CCN)NC(=O)[C@H](CCN)NC(=O)[C@H]([C@@H](C)O)NC(=O)[C@@H](CC(C)C)NC(=O)[C@H](CCN)NC1=O)[C@@H](C)O [Compound 32] (Octanoyl-[Orn]T[Dab][Dab][Dab][dL]T[Dab][Dab]T; lactam 4-C)	1 (≈ 0.864 µM)	1 (≈ 0.864 µM)	>32	>32	>32	>32	>32	1 (≈ 0.864 µM)	>32
CCCCCCCC(=O)N[C@@H](CCN)C(=O)N[C@H](C(=O)N[C@@H](CCCN)C(=O)N[C@H]1CCNC(=O)[C@H]([C@@H](C)O)NC(=O)[C@H](CCN)NC(=O)[C@H](CCN)NC(=O)[C@H]([C@@H](C)O)NC(=O)[C@@H](CC(C)C)NC(=O)[C@H](CCN)NC1=O)[C@@H](C)O [Compound 34] (Octanoyl-[Dab]T[Orn][Dab][Dab][dL]T[Dab][Dab]T; lactam 4-C)	<0.125	<0.125	4 (≈ 3.46 µM)	2 (≈ 1.73 µM)	2 (≈ 1.73 µM)	2 (≈ 1.73 µM)	1 (≈ 0.864 µM)	0.5 (≈ 0.432 µM)	>32
CCCCCCCC(=O)N[C@@H](CCN)C(=O)N[C@H](C(=O)N[C@@H](CN)C(=O)N[C@H]1CCNC(=O)[C@H]([C@@H](C)O)NC(=O)[C@H](CCN)NC(=O)[C@H](CCN)NC(=O)[C@H](C(C)C)NC(=O)[C@@H](CC(C)C)NC(=O)[C@H](CCN)NC1=O)[C@@H](C)O [Compound 36] (Octanoyl-[Dab]T[Dap][Dab][Dab][dL]V[Dab][Dab]T; lactam 4-C)	0.25 (≈ 0.222 µM)	<0.125	0.25 (≈ 0.222 µM)	0.5 (≈ 0.443 µM)	0.25 (≈ 0.222 µM)	0.5 (≈ 0.443 µM)	1 (≈ 0.887 µM)	1 (≈ 0.887 µM)	4 (≈ 3.55 µM)
CCCCCCCCCC(=O)N[C@@H](CCN)C(=O)N[C@H](C(=O)N[C@@H](CN)C(=O)N[C@H]1CCNC(=O)[C@H]([C@@H](C)O)NC(=O)[C@H](CCN)NC(=O)[C@H](CCN)NC(=O)[C@H]([C@@H](C)O)NC(=O)[C@@H](CC(C)C)NC(=O)[C@H](CCN)NC1=O)[C@@H](C)O [Compound 37] (Decanoyl-[Dab]T[Dap][Dab][Dab][dL]T[Dab][Dab]T; lactam 4-C)	0.5 (≈ 0.432 µM)	4 (≈ 3.46 µM)	0.5 (≈ 0.432 µM)	0.5 (≈ 0.432 µM)	0.25 (≈ 0.216 µM)	0.25 (≈ 0.216 µM)	1 (≈ 0.864 µM)	0.5 (≈ 0.432 µM)	2 (≈ 1.73 µM)
CCCCCCCCCC(=O)N[C@@H](CCN)C(=O)N[C@H](C(=O)N[C@@H](CN)C(=O)N[C@H]1CCNC(=O)[C@H]([C@@H](C)O)NC(=O)[C@H](CCN)NC(=O)[C@H](CCN)NC(=O)[C@H](C)NC(=O)[C@@H](CC(C)C)NC(=O)[C@H](CCN)NC1=O)[C@@H](C)O [Compound 38] (Decanoyl-[Dab]T[Dap][Dab][Dab][dL]A[Dab][Dab]T; lactam 4-C)	0.5 (≈ 0.443 µM)	0.5 (≈ 0.443 µM)	1 (≈ 0.887 µM)	0.5 (≈ 0.443 µM)	0.5 (≈ 0.443 µM)	1 (≈ 0.887 µM)	1 (≈ 0.887 µM)	2 (≈ 1.77 µM)	2 (≈ 1.77 µM)
CCCCCCCCCC(=O)N[C@@H](CCN)C(=O)N[C@H](C(=O)N[C@@H](CN)C(=O)N[C@H]1CCNC(=O)[C@H]([C@@H](C)O)NC(=O)[C@H](CCN)NC(=O)[C@H](CCN)NC(=O)[C@H](C(C)C)NC(=O)[C@@H](CC(C)C)NC(=O)[C@H](CCN)NC1=O)[C@@H](C)O [Compound 39] (Decanoyl-[Dab]T[Dap][Dab][Dab][dL]V[Dab][Dab]T; lactam 4-C)	0.5 (≈ 0.433 µM)	0.5 (≈ 0.433 µM)	0.5 (≈ 0.433 µM)	2 (≈ 1.73 µM)	0.5 (≈ 0.433 µM)	1 (≈ 0.865 µM)	1 (≈ 0.865 µM)	2 (≈ 1.73 µM)	2 (≈ 1.73 µM)
CCCCCCCCCC(=O)N[C@@H](CCN)C(=O)N[C@H](C(=O)N[C@@H](CCN)C(=O)N[C@H]1CCNC(=O)[C@H]([C@@H](C)O)NC(=O)[C@H](CCN)NC(=O)[C@H](CCN)NC(=O)[C@H](C)NC(=O)[C@@H](CC(C)C)NC(=O)[C@H](CCN)NC1=O)[C@@H](C)O [Compound 40] (Decanoyl-[Dab]T[Dab][Dab][Dab][dL]A[Dab][Dab]T; lactam 4-C)	0.25 (≈ 0.219 µM)	0.25 (≈ 0.219 µM)	0.25 (≈ 0.219 µM)	0.5 (≈ 0.438 µM)	0.5 (≈ 0.438 µM)	0.5 (≈ 0.438 µM)	0.5 (≈ 0.438 µM)	2 (≈ 1.75 µM)	4 (≈ 3.5 µM)
CCCCCCCCCC(=O)N[C@@H](CCN)C(=O)N[C@H](C(=O)N[C@@H](CCN)C(=O)N[C@H]1CCNC(=O)[C@H]([C@@H](C)O)NC(=O)[C@H](CCN)NC(=O)[C@H](CCN)NC(=O)[C@H](C(C)C)NC(=O)[C@@H](CC(C)C)NC(=O)[C@H](CCN)NC1=O)[C@@H](C)O [Compound 41] (Decanoyl-[Dab]T[Dab][Dab][Dab][dL]V[Dab][Dab]T; lactam 4-C)	1 (≈ 0.855 µM)	0.5 (≈ 0.428 µM)	0.5 (≈ 0.428 µM)	1 (≈ 0.855 µM)	1 (≈ 0.855 µM)	0.5 (≈ 0.428 µM)	1 (≈ 0.855 µM)	4 (≈ 3.42 µM)	2 (≈ 1.71 µM)
